For one test, the target named is T1, CCR4 (Homo sapiens, UniProt P51679).
T1 construct: expressed in transfected cells; host or cells: CHO cell membranes
T1 sequence (P51679 1-360): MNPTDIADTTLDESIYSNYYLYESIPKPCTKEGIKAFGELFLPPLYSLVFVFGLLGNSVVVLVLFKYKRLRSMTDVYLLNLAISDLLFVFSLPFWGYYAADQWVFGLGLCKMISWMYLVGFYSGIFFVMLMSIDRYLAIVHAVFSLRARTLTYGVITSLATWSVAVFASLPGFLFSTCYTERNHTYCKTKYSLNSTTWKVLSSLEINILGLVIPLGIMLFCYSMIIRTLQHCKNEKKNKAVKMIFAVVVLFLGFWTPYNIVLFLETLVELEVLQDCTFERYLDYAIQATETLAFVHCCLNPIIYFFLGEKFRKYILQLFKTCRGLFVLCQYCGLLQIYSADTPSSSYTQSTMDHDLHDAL
Kind of test: [35S]-GTPγS SPA binding assay for CCR4 antagonist activity. In kind it is biochemical. The following applies: CCR4 expressing CHO membranes; human MDC at EC80; [35S]-GTPγS competition. On the procedure:
[35S]-GTPγS SPA Binding Assays for CCR4 Antagonist Activity
Antagonist potency was determined by a radioligand [35S]-GTPγS competition assay. Briefly, CCR4 expressing CHO membranes were homogenised by passing through a 23G needle. These membranes were then adhered to WGA-coated Leadseeker SPA beads in assay buffer (20 mM HEPES, 10 mM MgCl2, 100 mM NaCl, 0.05% BSA, 40 ug/ml Saponin and pH adjusted to 7.4 using KOH 5M) to generate a 3 μg/well final assay concentration (FAC) membrane and 250 μg/well FAC bead, solution.
The bead/membrane/[35S]-GTPγS/Agonist suspension was dispensed into white Greiner polypropylene 384-well plates (45 μl/well), containing 0.5 μl of compound. […] Plates were then read on a Viewlux instrument and luminescence was then plotted as a percentage of the maximum inhibitional response elicited by an IC100 of a standard antagonist.

The test system of another test is CD4+ CCR4+ T cells. As to the kind of experiment: Chemokine stimulated increases in cellular F-actin content. In kind it is cell-based. As to conditions: Homo sapiens, T-cell, 0.5 h; PBMC from normal volunteers; antagonist 30 min at 37° C. before agonist for 15 sec; F-actin content by flow cytometry; read-out: pA2 (converted). Put shortly:
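Human PBMC from citrated volunteer blood, stained for CD4 and CCR4, were pre-incubated with antagonist or vehicle (0.1% DMSO) for 30 min at 37 °C, then stimulated with agonist for 15 s and formaldehyde-fixed. F-actin was stained with phalloidin and read by flow cytometry as CD4+CCR4+ MFI relative to CD4+CCR4− cells.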
A general note: In flow cytometry, cells or beads pass a laser one at a time.

Experimental findings from patent publication US8304446B2, “Compounds” (Glaxo Group Limited, priority 2009, dated 2012) are described below.

As usually defined, the IC50 is the concentration needed to halve the response being measured.

Where a name gives a salt, the structure may show the parent alone.

`COc1cccc2c1c(NS(=O)(=O)c1ccc(Cl)s1)nn2Cc1cccc(CNC(=O)C(C)O)c1` (centres unmarked) [Example 37, N-[(3-{[3-{[(5-Chloro-2-thienyl)sulfonyl]amino}-4-(methyloxy)-1H-indazol-1-yl]methyl}phenyl)methyl]-2-hydroxypropanamide] showed an IC50 at CCR4 of 3.98 to 15.8 nM. Also, the Kb in the test with CD4+ CCR4+ T cells was not above 126 nM. On the same counts, the results for `COc1cccc2c1c(NS(=O)(=O)c1ccc(Cl)s1)nn2Cc1cccc(CNC(=O)C(C)C)c1` [Example 3, N-[(3-{[3-{[(5-chloro-2-thienyl)sulfonyl]amino}-4-(methyloxy)-1H-indazol-1-yl]methyl}phenyl)methyl]-2-methylpropanamide] are 3.98 to 15.8 nM and not above 126 nM.

In turn, `COc1cccc2c1c(NS(=O)(=O)c1ccc(Cl)s1)nn2Cc1cccc(CNC(=O)[C@]2(C)CCCN2)c1` [Example 27, N-[(3-{[3-{[(5-chloro-2-thienyl)sulfonyl]amino}-4-(methyloxy)-1H-indazol-1-yl]methyl}phenyl)methyl]-2-methyl-L-prolinamide trifluoroacetate] showed a half-maximal inhibitory concentration (IC50) on CCR4 of 3.98 to 15.8 nM. Besides, the Kb with CD4+ CCR4+ T cells was not above 126 nM. For `COc1cccc2c1c(NS(=O)(=O)c1ccc(Cl)s1)nn2Cc1cccc(CNC(=O)C2COCCN2C)c1` (single isomer, unassigned; enantiomer 1) [Example 124, N-[(3-{[3-{[(5-Chloro-2-thienyl)sulfonyl]amino}-4-(methyloxy)-1H-indazol-1-yl]methyl}phenyl)methyl]-4-methyl-3-morpholinecarboxamide Enantiomer 1], at CCR4, the IC50 is 3.98 to 15.8 nM. For the same compound, the Kb with CD4+ CCR4+ T cells is not above 126 nM.

`COc1cccc2c1c(NS(=O)(=O)c1ccc(Cl)s1)nn2Cc1cccc(CNC(=O)C2CNCCN2)c1` (centres unmarked) [Example 16, N-[(3-{[3-{[(5-chloro-2-thienyl)sulfonyl]amino}-4-(methyloxy)-1H-indazol-1-yl]methyl}phenyl)methyl]-2-piperazinecarboxamide hydrochloride] gave a concentration for half-maximal inhibition (IC50) at CCR4 of 3.98 to 15.8 nM. In addition, in the test on CD4+ CCR4+ T cells, the Kb is not above 126 nM.

As for `COc1cccc2c1c(NS(=O)(=O)c1ccc(Cl)s1)nn2Cc1cccc(CNC(=O)C(C)CN)c1` (centres unmarked) [Example 26, 3-Amino-N-[(3-{[3-{[(5-chloro-2-thienyl)sulfonyl]amino}-4-(methyloxy)-1H-indazol-1-yl]methyl}phenyl)methyl]-2-methylpropanamide trifluoroacetate], on CCR4, the half-maximal inhibitory concentration (IC50) is 3.98 to 15.8 nM. The Kb with CD4+ CCR4+ T cells was not above 126 nM. On the same counts, the results for `COc1cccc2c1c(NS(=O)(=O)c1ccc(Cl)s1)nn2Cc1cccc(CNC(=O)[C@@H]2C[C@@H](F)CN2)c1` [Example 52, (4R)—N-[(3-{[3-{[(5-Chloro-2-thienyl)sulfonyl]amino}-4-(methyloxy)-1H-indazol-1-yl]methyl}phenyl)methyl]-4-fluoro-L-prolinamide trifluoroacetate] are 3.98 to 15.8 nM and not above 126 nM. For `COc1cccc2c1c(NS(=O)(=O)c1ccc(Cl)s1)nn2Cc1cccc(CNC(=O)C2COCCN2)c1` (centres unmarked) [Example 6, N-[(3-{[3-{[(5-chloro-2-thienyl)sulfonyl]amino}-4-(methyloxy)-1H-indazol-1-yl]methyl}phenyl)methyl]-3-morpholinecarboxamide trifluoroacetate], in that order: 3.98 to 15.8 nM and not above 126 nM. For `COc1cccc2c1c(NS(=O)(=O)c1ccc(Cl)s1)nn2Cc1cccc(CNC(=O)[C@H]2CC(F)(F)CN2)c1` [Example 55, N-[(3-{[3-{[(5-Chloro-2-thienyl)sulfonyl]amino}-4-(methyloxy)-1H-indazol-1-yl]methyl}phenyl)methyl]-4,4-difluoro-D-prolinamide trifluoroacetate], in that order: 3.98 to 15.8 nM and not above 126 nM. `COc1cccc2c1c(NS(=O)(=O)c1ccc(Cl)s1)nn2Cc1cccc(CNC(=O)C2CCOC2)c1` (centres unmarked) [Example 35, N-[(3-{[3-{[(5-Chloro-2-thienyl)sulfonyl]amino}-4-(methyloxy)-1H-indazol-1-yl]methyl}phenyl)methyl]tetrahydro-3-furancarboxamide] showed a half-maximal inhibitory concentration (IC50) on CCR4 of 3.98 to 15.8 nM. The Kb with CD4+ CCR4+ T cells is not above 126 nM. For `COc1cccc2c1c(NS(=O)(=O)c1ccc(Cl)s1)nn2Cc1cccc(CNC(=O)[C@@H]2COCCN2)c1` [Example 8, (3S)—N-[(3-{[3-{[(5-Chloro-2-thienyl)sulfonyl]amino}-4-(methyloxy)-1H-indazol-1-yl]methyl}phenyl)methyl]-3-morpholinecarboxamide hydrochloride], in that order: 3.98 to 15.8 nM and not above 126 nM.

In turn, `COc1cccc2c1c(NS(=O)(=O)c1ccc(Cl)s1)nn2Cc1cccc(CNC(=O)[C@H]2COCCN2)c1` [Example 7, (3R)—N-[(3-{[3-{[(5-Chloro-2-thienyl)sulfonyl]amino}-4-(methyloxy)-1H-indazol-1-yl]methyl}phenyl)methyl]-3-morpholinecarboxamide hydrochloride] gave an IC50 at CCR4 of 3.98 to 15.8 nM. Moreover, in the test on CD4+ CCR4+ T cells, the Kb was not above 126 nM. For `COc1cccc2c1c(NS(=O)(=O)c1ccc(Cl)s1)nn2Cc1cccc(CNC(=O)[C@@H]2C[C@H](F)CN2)c1` [Example 28, (4S)—N-[(3-{[3-{[(5-chloro-2-thienyl)sulfonyl]amino}-4-(methyloxy)-1H-indazol-1-yl]methyl}phenyl)methyl]-4-fluoro-L-prolinamide trifluoroacetate], in that order: 3.98 to 15.8 nM and not above 126 nM.

As for `COc1cccc2c1c(NS(=O)(=O)c1ccc(Cl)s1)nn2Cc1cccc(CNC(=O)[C@@H]2CCCCN2)c1` [Example 51, (2S)—N-[(3-{[3-{[(5-Chloro-2-thienyl)sulfonyl]amino}-4-(methyloxy)-1H-indazol-1-yl]methyl}phenyl)methyl]-2-piperidinecarboxamide trifluoroacetate], the half-inhibitory concentration (IC50) on CCR4 was 3.98 to 15.8 nM. For the same compound, in the test on CD4+ CCR4+ T cells, the Kb is not above 126 nM. For `CCC(=O)NCc1cccc(Cn2nc(NS(=O)(=O)c3ccc(Cl)s3)c3c(OC)cccc32)c1` [Example 2, N-[(3-{[3-{[(5-chloro-2-thienyl)sulfonyl]amino}-4-(methyloxy)-1H-indazol-1-yl]methyl}phenyl)methyl]propanamide], in that order: 3.98 to 15.8 nM and not above 126 nM. With `COc1cccc2c1c(NS(=O)(=O)c1ccc(Cl)s1)nn2Cc1cccc(CNC(=O)[C@H](C)N)c1` [Example 18, N^1-[(3-{[3-{[(5-chloro-2-thienyl)sulfonyl]amino}-4-(methyloxy)-1H-indazol-1-yl]methyl}phenyl)methyl]-L-alaninamide trifluoroacetate], the IC50 at CCR4 was 3.98 to 15.8 nM. The Kb with CD4+ CCR4+ T cells was not above 126 nM. For `CN[C@@H](C)C(=O)NCc1cccc(Cn2nc(NS(=O)(=O)c3ccc(Cl)s3)c3c(OC)cccc32)c1` [Example 17, N^1-[(3-{[3-{[(5-chloro-2-thienyl)sulfonyl]amino}-4-(methyloxy)-1H-indazol-1-yl]methyl}phenyl)methyl]-N^2-methyl-L-alaninamide trifluoroacetate], in that order: 3.98 to 15.8 nM and not above 126 nM. For `CC(=O)NCc1cccc(Cn2nc(NS(=O)(=O)c3ccc(Cl)s3)c3c(O)cccc32)c1` [Example 72, N-({3-[(3-{[(5-Chloro-2-thienyl)sulfonyl]amino}-4-hydroxy-1H-indazol-1-yl)methyl]phenyl}methyl)acetamide], in that order: 3.98 to 15.8 nM and not above 126 nM.

On to `COc1cccc2c1c(NS(=O)(=O)c1ccc(Cl)s1)nn2Cc1cccc(CNC(=O)C(C)(C)O)c1` [Example 57, N-[(3-{[3-{[(5-Chloro-2-thienyl)sulfonyl]amino}-4-(methyloxy)-1H-indazol-1-yl]methyl}phenyl)methyl]-2-hydroxy-2-methylpropanamide], for which, at CCR4, the IC50 was 3.98 to 15.8 nM. In addition, in the test with CD4+ CCR4+ T cells, the Kb was not above 126 nM. For `CN[C@H](C)C(=O)NCc1cccc(Cn2nc(NS(=O)(=O)c3ccc(Cl)s3)c3c(O)cccc32)c1` [Example 71, N^1-({3-[(3-{[(5-Chloro-2-thienyl)sulfonyl]amino}-4-hydroxy-1H-indazol-1-yl)methyl]phenyl}methyl)-N^2-methyl-D-alaninamide formic acid salt], in that order: 3.98 to 15.8 nM and not above 126 nM. `CC(=O)NCc1cccc(Cn2nc(NS(=O)(=O)c3ccc(Cl)s3)c3c(C(C)O)cccc32)c1` (centres unmarked) [Example 149, N-[(3-{[3-{[(5-Chloro-2-thienyl)sulfonyl]amino}-4-(1-hydroxyethyl)-1H-indazol-1-yl]methyl}phenyl)methyl]acetamide] had an IC50 at CCR4 of 3.98 to 15.8 nM.
